Test results taken from US9469650B2, “Melampomagnolide B derivatives” (BOARD OF TRUSTEES OF THE UNIVERSITY OF ARKANSAS, priority 2013, dated 2016).
Like-named read-outs stand apart in the source and are kept apart here.

Legend:
SF-295 = assay: panel of 60 human tumor cell lines, growth inhibition (CNS Cancer); conditions: SF-295
SNB-19 = assay: as above; conditions: SNB-19
U251 = assay: as above; conditions: U251
HCC-2998 = assay: panel of 60 human tumor cell lines, growth inhibition (Colon Cancer); conditions: HCC-2998
HT29 = assay: as above; conditions: HT29
786-0 = assay: panel of 60 human tumor cell lines, growth inhibition (Renal Cancer); conditions: 786-0
ACHN = assay: as above
TK-10 = assay: as above; conditions: TK-10
HS 578T = assay: panel of 60 human tumor cell lines, growth inhibition (Breast Cancer)
BT-549 = assay: as above
IGROV1 = assay: panel of 60 human tumor cell lines, growth inhibition (Ovarian Cancer); conditions: IGROVI
SK-OV-3 = assay: as above; conditions: SK-OV-3
DU-145 = assay: panel of 60 human tumor cell lines, growth inhibition (Prostate Cancer); conditions: DU-145
HOP-62 = assay: panel of 60 human tumor cell lines, growth inhibition (Non-Small Cell Lung Cancer); conditions: HOP-62
NCI-H226 = assay: as above; conditions: NCI-H226
NCI-H23 = assay: as above; conditions: NCI-H23
NCI-H460 = assay: as above; conditions: NCI-H460
NCI-H522 = assay: as above; conditions: NCI-H522

SMILES: C=C1C(=O)O[C@H]2[C@H]1CC/C(COC(=O)NCCN1CCCCC1)=C\CC[C@@]1(C)O[C@@H]21 [JVM 2-13]
- GI50 (HL-60(TB)): 3.5 µM
- TGI (HL-60(TB)): 11.3 µM
- Percent Growth (HL-60(TB); Log10 Concentration −4.0): −44%
- Percent Growth (HL-60(TB); Log10 Concentration −5.0): 2%
- Percent Growth (HL-60(TB); Log10 Concentration −6.0): 107%
- Percent Growth (HL-60(TB); Log10 Concentration −7.0): 106%
- Percent Growth (HL-60(TB); Log10 Concentration −8.0): 90%
- CC50 (HL-60(TB); read-out: LC50): > 100 µM
- GI50 (SF-295): 50.8 µM
- TGI (SF-295): >100 µM
- Percent Growth (SF-295; Log10 Concentration −4.0): 32%
- Percent Growth (SF-295; Log10 Concentration −5.0): 94%
- Percent Growth (SF-295; Log10 Concentration −6.0): 96%
- Percent Growth (SF-295; Log10 Concentration −7.0): 95%
- Percent Growth (SF-295; Log10 Concentration −8.0): 90%
- GI50 (SNB-19): 16.8 µM
- TGI (SNB-19): 15.1 µM
- Percent Growth (SNB-19; Log10 Concentration −4.0): −71%
- Percent Growth (SNB-19; Log10 Concentration −5.0): 85%
- Percent Growth (SNB-19; Log10 Concentration −6.0): 96%
- Percent Growth (SNB-19; Log10 Concentration −7.0): 97%
- Percent Growth (SNB-19; Log10 Concentration −8.0): 98%
- GI50 (U251): 17.5 µM
- TGI (U251): 13.5 µM
- Percent Growth (U251; Log10 Concentration −4.0): −84%
- Percent Growth (U251; Log10 Concentration −5.0): 93%
- Percent Growth (U251; Log10 Concentration −6.0): 94%
- Percent Growth (U251; Log10 Concentration −7.0): 97%
- Percent Growth (U251; Log10 Concentration −8.0): 98%
- GI50 (HCC-2998): 18.5 µM
- TGI (HCC-2998): 36 µM
- Percent Growth (HCC-2998; Log10 Concentration −4.0): −77%
- Percent Growth (HCC-2998; Log10 Concentration −5.0): 96%
- Percent Growth (HCC-2998; Log10 Concentration −6.0): 104%
- Percent Growth (HCC-2998; Log10 Concentration −7.0): 105%
- Percent Growth (HCC-2998; Log10 Concentration −8.0): 99%
- GI50 (HT29): 3.76 µM
- TGI (HT29): 13 µM
- Percent Growth (HT29; Log10 Concentration −4.0): −75%
- Percent Growth (HT29; Log10 Concentration −5.0): 10%
- Percent Growth (HT29; Log10 Concentration −6.0): 104%
- Percent Growth (HT29; Log10 Concentration −7.0): 100%
- Percent Growth (HT29; Log10 Concentration −8.0): 100%
- GI50 (786-0): 3.95 µM
- TGI (786-0): 17.3 µM
- Percent Growth (786-0; Log10 Concentration −4.0): −74%
- Percent Growth (786-0; Log10 Concentration −5.0): 23%
- Percent Growth (786-0; Log10 Concentration −6.0): 90%
- Percent Growth (786-0; Log10 Concentration −7.0): 89%
- Percent Growth (786-0; Log10 Concentration −8.0): 86%
- GI50 (ACHN): 2.76 µM
- TGI (ACHN): 12.3 µM
- Percent Growth (ACHN; Log10 Concentration −4.0): −80%
- Percent Growth (ACHN; Log10 Concentration −5.0): 8%
- Percent Growth (ACHN; Log10 Concentration −6.0): 83%
- Percent Growth (ACHN; Log10 Concentration −7.0): 97%
- Percent Growth (ACHN; Log10 Concentration −8.0): 94%
- GI50 (TK-10): 2.88 µM
- TGI (TK-10): 11.1 µM
- Percent Growth (TK-10; Log10 Concentration −4.0): −94%
- Percent Growth (TK-10; Log10 Concentration −5.0): 5%
- Percent Growth (TK-10; Log10 Concentration −6.0): 89%
- Percent Growth (TK-10; Log10 Concentration −7.0): 103%
- Percent Growth (TK-10; Log10 Concentration −8.0): 105%
- GI50 (HS 578T): 18.4 µM
- TGI (HS 578T; HS 57BT): 66 µM
- Percent Growth (HS 578T; HS 57BT, Log10 Concentration −4.0): −16%
- Percent Growth (HS 578T; HS 57BT, Log10 Concentration −5.0): 74%
- Percent Growth (HS 578T; HS 57BT, Log10 Concentration −6.0): 89%
- Percent Growth (HS 578T; HS 57BT, Log10 Concentration −7.0): 87%
- Percent Growth (HS 578T; HS 57BT, Log10 Concentration −8.0): 92%
- TGI (BT-549): 18.3 µM
- Percent Growth (BT-549; 81-549, Log10 Concentration −4.0): −96%
- Percent Growth (BT-549; 81-549, Log10 Concentration −5.0): 34%
- Percent Growth (BT-549; 81-549, Log10 Concentration −6.0): 89%
- Percent Growth (BT-549; 81-549, Log10 Concentration −7.0): 88%
- Percent Growth (BT-549; 81-549, Log10 Concentration −8.0): 83%
- GI50 (IGROV1): 5.59 µM
- TGI (IGROV1): 22.9 µM
- Percent Growth (IGROV1; Log10 Concentration −4.0): −58%
- Percent Growth (IGROV1; Log10 Concentration −5.0): 33%
- Percent Growth (IGROV1; Log10 Concentration −6.0): 101%
- Percent Growth (IGROV1; Log10 Concentration −7.0): 106%
- Percent Growth (IGROV1; Log10 Concentration −8.0): 105%
- GI50 (SK-OV-3): 21 µM
- TGI (SK-OV-3): 45.8 µM
- Percent Growth (SK-OV-3; Log10 Concentration −4.0): −50%
- Percent Growth (SK-OV-3; Log10 Concentration −5.0): 97%
- Percent Growth (SK-OV-3; Log10 Concentration −6.0): 97%
- Percent Growth (SK-OV-3; Log10 Concentration −7.0): 103%
- Percent Growth (SK-OV-3; Log10 Concentration −8.0): 92%
- GI50 (DU-145): 4.89 µM
- TGI (DU-145): 16.6 µM
- Percent Growth (DU-145; Log10 Concentration −4.0): −97%
- Percent Growth (DU-145; Log10 Concentration −5.0): 27%
- Percent Growth (DU-145; Log10 Concentration −6.0): 101%
- Percent Growth (DU-145; Log10 Concentration −7.0): 108%
- Percent Growth (DU-145; Log10 Concentration −8.0): 110%
- GI50 (HOP-62): 17 µM
- Percent Growth (HOP-62; Log10 Concentration −4.0): −77%
- Percent Growth (HOP-62; Log10 Concentration −5.0): 88%
- Percent Growth (HOP-62; Log10 Concentration −6.0): 91%
- Percent Growth (HOP-62; Log10 Concentration −7.0): 95%
- Percent Growth (HOP-62; Log10 Concentration −8.0): 86%
- GI50 (NCI-H226): 10.5 µM
- TGI (NCI-H226): 40.2 µM
- Percent Growth (NCI-H226; Log10 Concentration −4.0): −3%
- Percent Growth (NCI-H226; Log10 Concentration −5.0): 52%
- Percent Growth (NCI-H226; Log10 Concentration −6.0): 93%
- Percent Growth (NCI-H226; Log10 Concentration −7.0): 96%
- Percent Growth (NCI-H226; Log10 Concentration −8.0): 99%
- GI50 (NCI-H23): 11.3 µM
- TGI (NCI-H23): 27.2 µM
- Percent Growth (NCI-H23; Log10 Concentration −4.0): −74%
- Percent Growth (NCI-H23; Log10 Concentration −5.0): 57%
- Percent Growth (NCI-H23; Log10 Concentration −6.0): 104%
- Percent Growth (NCI-H23; Log10 Concentration −7.0): 100%
- Percent Growth (NCI-H23; Log10 Concentration −8.0): 98%
- TGI (NCI-H460): 36.5 µM
- Percent Growth (NCI-H460; Log10 Concentration −4.0): −66%
- Percent Growth (NCI-H460; Log10 Concentration −5.0): 85%
- Percent Growth (NCI-H460; Log10 Concentration −6.0): 100%
- Percent Growth (NCI-H460; Log10 Concentration −7.0): 100%
- Percent Growth (NCI-H460; Log10 Concentration −8.0): 102%
- GI50 (NCI-H522): 1.12 µM
- TGI (NCI-H522): 2.86 µM
- Percent Growth (NCI-H522; Log10 Concentration −4.0): −65%
- Percent Growth (NCI-H522; Log10 Concentration −5.0): −67%
- Percent Growth (NCI-H522; Log10 Concentration −6.0): 56%
- Percent Growth (NCI-H522; Log10 Concentration −7.0): 105%
- Percent Growth (NCI-H522; Log10 Concentration −8.0): 99%
